{
  "source": "patent US8828966B2",
  "about": "“Method for treatment of macular degeneration by modulating P2Y12 or P2X7 receptors” (priority 2006, dated 2014)",
  "key": {"ABCA4−/− mice [1]": {"tested_on": "ABCA4−/− mice", "experiment": "Oral P2Y12 inhibitor in ABCA4-/- mice, lysosomal pH of RPE cells", "format": "in vivo, mouse", "settings": "20 month old mice, 12 ug/ml in the water for 19 days", "protocol": "In this example the selected P2Y12 inhibitor was clopidogrel (commercially available as Plavix), but the invention need not be so limited, and other P2Y12 inhibitors, such as AR-C66096, may be used. The clopidogrel was given orally at 50 mg/kg and the pH measured from RPE cells that were removed 4 hrs later."}, "ABCA4−/− mice [2]": {"tested_on": "ABCA4−/− mice", "experiment": "Oral ticagrelor in ABCA4-/- mice, RPE autofluorescence", "format": "in vivo, mouse", "settings": "26 month old mice, 12 ug/ml in the water for 4 days, excited with 406 nm laser", "source_text": "Finally, as recorded in the photographic images of FIG. 12F, autofluorescence in untreated ABCA4−/− mice (upper, Con)) were compared with those treated with Brilinta (lower, Bri) in the water."}, "ARPE-19 cells [3]": {"tested_on": "ARPE-19 cells", "experiment": "Lysosomal pH (pHL) with LysoSensor Yellow/Blue, high through-put screen", "format": "cell-based, human", "settings": "for effect on pHL of cells treated with tamoxifen: tamoxifen concentration not stated, A68930 and A77636 at 1 μM; for effect on pHL, agent alone: cells without other alkalinizing agent, NH4Cl 10 mM, BAF 200 nM, CHQ 20 μM, CFTR-172 10 μM, LDL 10 μg/ml, others not given", "protocol": "Lysosensor Yellow/Blue co-localized with the Lysotracker Red dye in small vesicles, with a distribution consistent with lysosomal origin. Measurements of pHL were performed using a high throughput screening (HTS) protocol to maximize output and minimize variation using ARPE-19 cells in 96 well plates. […] Loading for 5 min. at 23° C. with 5 μM lysosensor, followed by 15 min. for internalization, produced stable and reproducible results.\nThe ratio was converted to pH by calibrating with KCl buffered to pH 4.0-6.0 in the presence of monensin and nigericin. Calibration indicated a baseline pH of 4.4 to 4.5, supporting lysosomal localization. […] NH4Cl decreased the ratios slightly at 380 nm. Nevertheless, absent the addition of the dye, none of these compounds, or any others, altered the fluorescent signal at 340 or 380 nm, showing a specificity of the measured change to pHL. […] This quantification is necessary to predict the potential effectiveness of acidifying drugs to restore lysosomal enzyme activity.\nExtensive trials determined that the optimal response is obtained with 5 minute dye loading and 15 minute post-incubation. […] All reagents were from Sigma Chemical Corp. unless otherwise indicated.\nIn general, each condition below used 3-12 independent wells per plate, in 3-6 separate plates. As levels from individual plates varied, data was normalized to the mean pHL for control wells from each plate. Fluorescent ratios were converted to pH following calibration performed on each plate as described. Incubation with Lysosensor Yellow/Blue was kept constant and all measurements were performed 15 min after removal of dye from the bath to ensure continuity. Significance was determined with a one-way ANOVA and Tukey post test. Drugs were always tested on control cells to ensure modification of healthy RPE cells was minimal, and cells were not exposed to dye to make sure effects were specific. All background was subtracted from the fluorescence excited at 340 and 380 nm independently before calculation of the ratio."}, "cAMP in the RPE": {"tested_on": "cAMP in the RPE", "experiment": "Effect of ATP on cAMP in the RPE", "format": "cell-based", "protocol": "P2Y11 Receptor: The initial investigation screened agonists that act at multiple P2 receptors for their effect on pHL using the high through-put assay. BzATP, ATP, ATPγS, ADPγS and 2 MeSATP and AR-C67085 were added at 10, 30, 100 and 300 μM, respectively, and relative actions were compared with published information for the human P2Y11 receptor (von Kugelgen et al, supra, 2000; Communi et al., supra, 1997; Communi et al., Br. J. Pharmacol. 128:1199-206 (1999)). ATP was added in the presence of ecto-ATPase/eNPP inhibitors βγmATP and ARL67156 (100 μM) since they prevent degradation of ATP in these cells. Receptor involvement was confirmed with antagonists suramin, reactive blue 2 and pyridoxal-phosphate-6-azophenyl-2′,4′-disulphonic acid (PPADS; all at 0.1, 1, 10 and 100 μM). Since the finding that ATP had the ability to elevate cAMP in the RPE was novel, the effect of ATP on cAMP was measured directly using the cAMP-Screen Direct Chemiluminescent Immunoassay System kit from Applied Biosystems using an HTS luminometer to measure […]. The role of cAMP was confirmed by inhibiting pKA with 100 μM Rp-8-Br-cAMPS."}, "[4]": {"tested_on": "primate model of the disease", "settings": "delivered orally; cited from earlier work"}, "[5]": {"tested_on": "RPE cells from ABCA4−/− mice", "experiment": "Lysosomal pH in fresh RPE cells from ABCA4-/- mice, drug added to the cells", "format": "cell-based, mouse", "settings": "RPE cells from 11-month-old ABCA4−/− mice", "source_text": "Measurement of pHL from Isolated Mouse Cells: Based on protocols that are used extensively to measure Ca2^+ from retinal ganglion cells (Zhang et al. Invest. Ophthalmol. Vis. Sci. 46:2183-2191 (2005)), cells were fixed on coverslips and mounted on Nikon Eclipse inverted microscope, visualized with a x40 oil-immersion fluorescence objective, and perfused with control solution. The field was alternatively excited at 340 nm and 380 nm, and fluorescence >515 emitted from the region of interest surrounding individual cells is measured with a CCD camera and Imagemaster software (Photon Technologies International, Inc). After baseline levels were recorded for 3-5 minutes in the absence of dye, solution was replaced with 5 μM Lysosensor Yellow/Blue dye for 5 minutes before washing for an additional 15 minutes. The ratios in the control solutions were recorded, and then acidifying drugs were added. Ratios were converted to pH with monensin/nigericin as above.\nAs a result, lysosomal pH increases early, and is measured in ABCA4^−/− mice at 6, 12 and 18 weeks from RPE cells within 5 hours of sacrifice. […] However, the signal/noise from measurements of isolated cells with the plate reader is not acceptable. Instead, this signal is measured using the microscope-based imaging system, previously used successfully to measure Ca2^+ from freshly isolated retinal ganglion cells (Zhang et al., supra, 2005). […]"}, "other P2 receptors": {"tested_on": "other P2 receptors", "settings": "cited from earlier work"}, "ARPE-19 cells [6]": {"tested_on": "ARPE-19 cells", "experiment": "FACS analysis of autofluorescence (excited at 488 nm)", "format": "cell-based, human", "settings": "photoreceptor outer segments plus 10 μM chloroquine, 7 days", "source_text": "To maintain a balance between the synthesis, degradation, and subsequent recycling of cellular products there are a variety of autophagic responses, but all involve degradation of intracellular components via the lysosome. Typically, autophagy involves the formation of a membrane around a targeted region of the cell, separating the contents from the rest of the cytoplasm, and then the resultant vesicle fuses with a lysosome and the contents are subsequently degraded."}, "[7]": {"settings": "NH4Cl 10 mM", "experimental": "Isolation of Lysosomes: ARPE-19 cells were detached with 0.25% trypsin, centrifuged at 1000 rpm for 5 minutes, and resuspended in 0.25M sucrose with 5 mM ATP in 10 mM Tris buffer (pH 7.4 with HCl). After homogenization, samples were spun at 1000×g (10 min). The supernatant was centrifuged (20,000×g, 10 min) and the pellet was resuspended in a 0.25 M sucrose buffer with 8 mM CaCl2 in Tris-HCl buffer (pH 7.4) to lyse mitochondria (15 min, 35° C.). […] After isolation, lysosomes were diluted 1:10 in a 150 mM KCl solution in Tris-HCl (pH 7.4) and pelleted at 25,000×g. The pellet was then resuspended in 5 μM Lysosensor dye. Cells were washed 2× by centrifugation (25,000×g, 15 min), resuspended in test or control solutions including 5 mM MgATP, plated into a 96 well plate (50 μl/well) and the pH was measured as above."}, "ARPE-19 cells [8]": {"tested_on": "ARPE-19 cells", "experiment": "Toxicity of A2E to cultured cells", "format": "cell-based, human", "settings": "A2E 100 nM, over a period of 1-2 weeks", "protocol": "Holz and colleagues previously reported A2E responses, but the increase in pHL required four weeks of feeding the cells with A2E (14 nM) every 3-4 days, and the A2E was complexed to low-density lipoprotein (LDL; 10 μg/ml) (Holz et al., supra, 1999). […] To reduce the lengthy time course, higher concentrations of A2E (100 nM) were tested, but the cells were killed over a period of 1-2 weeks. Therefore, alternative methods were needed to permit timely testing of the effect of pH on lysosomal activity in the RPE cells."}, "[9]": {"tested_on": "Cathepsin-D activity in ARPE-19 cells", "experiment": "Cathepsin-D activity monitored with a fluorescent reporter", "format": "cell-based, human", "settings": "addition of BzATP", "source_text": "In FIG. 13C, it is shown that BzATP reduced lysosomal enzyme activity. […] Cathepsin D is the major lysosomal protease responsible for degrading photoreceptors in the RPE, and thus changes to cathepsin D activity reflect the ability of the lysosomes to successfully degrade (dispose of) phagocytosed outer segments. […] Consequently, by applying exogenous antagonists to the P2X7 and P2Y12 receptors (i.e., P2X7 receptor-antagonist, and/or P2Y12 receptor-antagonist), the resulting pH elevation by endogenously released ATP is inhibited or prevented, thereby enhancing degradation of the metabolic waste by the lysosomes, reducing autofluorescent lipofuscin accumulation, and thus reducing the onset or progression of AMD."}, "[10]": {"tested_on": "LC3BII and p62 in ARPE-19 cells", "experiment": "Western blot of autophagy markers", "format": "cell-based, human", "settings": "Western blot quantification", "source_text": "While the RPE cells must degrade phagocytosed outer segments, they must also degrade and dispose of their own waste material through a process termed autophagy. The ability of P2X7 receptor stimulation to rapidly raise levels of autophagy markers LC3BII and p62 are consistent with the effects of raising lysosomal pH, for they imply that lysosomal alkalinization prevents the RPE cell from degrading material from autopagic vesicles containing p62 or tagged with LC3BII. (See, Kabeya, Y., et al., “LC3, a mammalian homolog of yeast Apg8p, is localized in autophagosome membranes after processing.” EMBO J., 22:[…] (2003); Moscat, J. and Diaz-Meco, M. T. (2009) “p62 at the Crossroads of Autophagy, Apoptosis, and Cancer,” Cell 137:1001-1004 (2009))."}},
  "data": [
    {"compound": "CCCSc1nc(N[C@@H]2C[C@H]2c2ccc(F)c(F)c2)c2nnn([C@@H]3C[C@H](OCCO)[C@@H](O)[C@H]3O)c2n1", "note": "[ticagrelor]", "values": [
      {"measurement": "lysosomal pH of RPE cells (ratio of pH sensor) after drug in the water", "setting": "ABCA4−/− mice [1]", "result": "reduced lysosomal pH of RPE cells"},
      {"measurement": "autofluorescence in RPE cells", "setting": "ABCA4−/− mice [2]", "result": "decreased autofluorescence"}
    ]},
    {"compound": "Nc1ncnc2c1ncn2[C@@H]1O[C@H](COP(=O)(O)OP(=O)(O)OP(=O)(O)O)[C@@H](O)[C@H]1O", "note": "[ATP]", "values": [
      {"measurement": "effect on lysosomal pH, conditions not stated", "setting": "ARPE-19 cells [3]", "result": "acidify lysosomes"},
      {"measurement": "effect on cAMP in the RPE", "setting": "cAMP in the RPE", "result": "elevate cAMP"}
    ]},
    {"compound": "NC[C@@H]1O[C@H](C23CC4CC(CC(C4)C2)C3)Cc2c1ccc(O)c2O", "note": "[A77636]", "values": [
      {"measurement": "Parkinsonian activity", "setting": "[4]", "result": "reduces Parkinsonian activity"},
      {"measurement": "effect on pHL of cells treated with tamoxifen", "setting": "ARPE-19 cells [3]", "result": "decreased lysosomal pH"},
      {"measurement": "effect on pHL (ratio 340 to 380 nm)", "setting": "[5]", "result": "decreased pHL"}
    ]},
    {"compound": "NC[C@@H]1O[C@H](c2ccccc2)Cc2c1ccc(O)c2O", "note": "[A68930]", "values": [
      {"measurement": "effect on pHL of cells treated with tamoxifen", "setting": "ARPE-19 cells [3]", "result": "decreased lysosomal pH"},
      {"measurement": "effect on pHL (ratio 340 to 380 nm)", "setting": "[5]", "result": "decreased pHL"}
    ]},
    {"compound": "Cl.Clc1cccc(-c2nnnn2Cc2cccnc2)c1Cl", "note": "[A438079, 3-[[5-(2,3-Dichlorophenyl)-1H-tetrazol-1-yl]methyl]pyridine hydrochloride salt]", "values": [
      {"measurement": "activity at other P2 receptors", "setting": "other P2 receptors", "result": "devoid of activity at other P2 receptors"},
      {"measurement": "effect on pHL rise by P2X7 agonist BzATP", "setting": "ARPE-19 cells [3]; cells stimulated with BzATP", "result": "prevented this rise"},
      {"measurement": "effect on autofluorescence enhanced by POS+CHQ", "setting": "ARPE-19 cells [6]", "result": "reduced this enhanced autofluorescence"}
    ]},
    {"compound": "Cl.N", "note": "[NH4Cl]", "values": [
      {"measurement": "340/380 ratio in isolated lysosomes", "setting": "[7]", "result": "increased the 340/380 ratio"},
      {"measurement": "effect on pHL, agent alone", "setting": "ARPE-19 cells [3]", "result": "pH was elevated"}
    ]},
    {"compound": "CC(C=CC1=C(C)CCCC1(C)C)=CC=CC(C)=Cc1cc(C=CC=C(C)C=CC2=C(C)CCCC2(C)C)cc[n+]1CCO", "note": "[A2E, N-retinylidene-N-retinylethanolamine]", "values": [
      {"measurement": "increase in pHL", "setting": "ARPE-19 cells [3]; ARPE-19 cells, A2E (14 nM) fed for 4 weeks", "result": 0.4, "unit": "units"},
      {"measurement": "cell killing", "setting": "ARPE-19 cells [8]", "result": "killed"}
    ]},
    {"compound": "BzATP", "values": [
      {"measurement": "effect on pHL, agent alone", "setting": "ARPE-19 cells [3]", "result": "elevation of the lysosomal pHL"},
      {"measurement": "Cathepsin-D activity", "setting": "[9]", "result": "visibly decreased"},
      {"measurement": "LC3BII level", "setting": "[10]", "result": "rapid increases"},
      {"measurement": "p62 level", "setting": "[10]", "result": "rapid increases"}
    ]}
  ]
}
